Measurements from article PMC7269337, “Spiro-containing derivatives show antiparasitic activity against Trypanosoma brucei through inhibition of the trypanothione reductase enzyme” (PLoS Neglected Tropical Diseases, 2020).
Converted amounts (≈) assume the structure as drawn. Read-outs that look alike come from different tables or passages of the source.

Columns and labels:
[1] = biological target: T1, human glutathione reductase (hGR) (Homo sapiens, UniProt P00390); experiment: human glutathione reductase (hGR) activity assay; type: biochemical
T1 construct: purchased Sigma-Aldrich
T1 sequence (P00390 44-522): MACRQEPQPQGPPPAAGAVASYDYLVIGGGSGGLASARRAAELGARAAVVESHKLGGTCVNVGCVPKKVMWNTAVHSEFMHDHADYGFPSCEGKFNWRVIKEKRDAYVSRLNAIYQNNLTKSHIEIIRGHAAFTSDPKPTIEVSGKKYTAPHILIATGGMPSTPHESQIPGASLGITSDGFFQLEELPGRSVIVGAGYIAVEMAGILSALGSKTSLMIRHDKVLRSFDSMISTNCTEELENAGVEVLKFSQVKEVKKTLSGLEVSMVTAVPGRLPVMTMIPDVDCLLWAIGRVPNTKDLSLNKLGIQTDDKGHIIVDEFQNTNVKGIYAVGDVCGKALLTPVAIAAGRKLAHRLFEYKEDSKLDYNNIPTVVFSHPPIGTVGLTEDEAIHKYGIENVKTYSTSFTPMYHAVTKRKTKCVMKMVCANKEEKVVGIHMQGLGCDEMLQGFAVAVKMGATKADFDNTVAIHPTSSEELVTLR
Procedure: (§1) Compounds from 10 mM stock solutions were transferred to assay plates by acoustic transfer (EDC Biosystems, Milmont, CA). The TbTR luminescent assay was performed in 384-well white plate (Greiner Bio One, Frickenhausen, Germany). The following components were added to the plates to a final volume of 30 μL: 0.1 nM TR, 20 μM NADPH, 10 μM TS2 in 50 mM HEPES (pH 7.4), 40 mM NaCl, 0.01% BSA. After 60 min of incubation at room temperature the residual amount of NADPH was measured by addition of an equal volume of NADPH-Glo as per the manufacturer’s protocol and the luminescent signal was acquired by an EnVision plate reader (PerkinElmer, Waltham, MA). […] After 10 minutes of incubation at room temperature the absorbance signal (412 nm) was detected using the Safire2 plate reader (Tecan, Switzerland). […] Results were analyzed using Prism software (GraphPad, San Diego, CA) and Vortex (Dotmatics, Bioshops Stortford, UK). […]
(§2) L. infantum TR was cloned and purified as previously described.[1] […] After 60 min of incubation at room temperature, an equal volume of NADPH-Glo reagent was added and the luminescent signal was acquired by an EnVision plate reader […]
(§3) after 30 minute (Figure S1) according to the reagent data sheet. […] The absorbance signal (412 nm) was acquired 15 minutes post incubation at room temperature using the plate reader (Safire2, Tecan, Switzerland). […]

[2] = biological target: T2, Leishmania infantum TR (LiTR) (Leishmania infantum, UniProt A4HSF7); experiment: LiTR luminescent (NADPH-Glo) enzyme assay; type: biochemical
T2 construct: made in house
Source text: S5 Fig. inhibition of Leismania infantum trypanothione reductase (LiTR) by Compound 1. Each experimental point is the average of three replicates.
The following method was used to determine the inhibition of the LiTR activity:
L. infantum TR was cloned and purified as previously described.[1] Bovine serum albumin (BSA), NADPH, auranofin, hGR, oxidized glutathione (GSSG) and DTNB were purchased from Sigma-Aldrich (St. Louis, MO); oxidized trypanothione (TS2) was purchased from Bachem (Bubendorf, Switzerland); the NADPH-Glo kit was purchased from Promega (Madison, WI, U.S.A.). Compounds, dissolved in DMSO, were transferred to 384-well white plates (Greiner Bio One, Frickenhausen, Germany) using the acoustic droplet ejection technology (ATS-100, EDC Biosystems, U.S.A.) to reach the desired final concentration. […] After 60 min of incubation at room temperature, an equal volume of NADPH-Glo reagent was added and the luminescent signal was acquired by an EnVision plate reader […]
as §3, with “Switzerland). Results were analyzed using Prism software (GraphPad, San Diego, CA, U.S.A.) and Vortex (Dotmatics, Bioshops Stortford, UK).” for “Switzerland).”

[3] = biological target: T3, TbTR (Trypanosoma brucei brucei, UniProt P39051); experiment: SPR binding assay on immobilized TbTR
T3 construct: the gene coding for the enzyme (aa 1–492) was codon optimized for the expression in E.coli; made in house; host or cells: E. coli BL21(DE3)
Procedure: Surface Plasmon resonance (SPR) interaction analysis were performed using a Biacore T200 (GE Healthcare, Uppsala, Sweden). TbTR was immobilized on a CM4 chip by amine coupling according to manufacturer’s instructions (Amine Coupling Kit, GE Healthcare, Uppsala, Sweden). Briefly, the surface of the sensor chip was activated for 7 minutes using a mixture of 0.1 M N-hydroxy succinimide (NHS) and 0.4 M N-ethyl-N’-[3-dimethyl-aminopropyl] carbodiimide (EDC) then 30 μg/ml of […] in 10 mM sodium acetate (pH 4.5) was injected for 360 s at 10 μl/min, finally residual activated groups on the surface were blocked by a 7 min injection of 1 M ethanolamine (pH 8.5). A reference channel for background subtraction was prepared by activation with EDC/NHS mixture (0.1 M/0.4 M as per ligand immobilization), followed by blocking with 1 M ethanolamine. The binding of the selected hit to the immobilized ligand was evaluated by a multi-cycle kinetic procedure in PBS-P (GE Healthcare Lifescience) supplemented with 2% DMSO (Sigma Aldrich). The analyte was injected for 60 s at 50 μl/min until equilibrium and dissociation monitored for 600 s. A standard curve of DMSO was included for solvent correction.
Biomolecular binding events were reported as changes of resonance units (RUs) over time. The data were analyzed by the Biacore T200 evaluation software. The sensorgrams were obtained, by subtracting the signals of the reference channel to those of the TbTR-immobilized one, and corrected for DMSO interference using the DMSO standard curve. The binding affinity was evaluated from kinetic parameters (koff/kon) calculated according to a heterogeneous ligand binding model.

[4] = tested on: T. brucei parasites; experiment: T. brucei growth inhibition assay (CellTiter-Glo); type: cell-based; conditions: Trypanosoma brucei, 24 h treatment, read-out: IC50, anti-proliferative activity on T. brucei culture
Procedure: The anti-proliferative effect of testing compounds on T. brucei in vitro cultures was carried out by incubating compounds with 1.5 × 10^3 parasite per well followed by 24 incubation at 37°C and 5% CO2. The parasite viability was measured by CellTiter-Glo according to the manufacturer's instructions.

[5] = tested on: endogenous TbTR activity in T. brucei lysate; experiment: T. brucei lysate thiol formation assay; type: biochemical, Trypanosoma brucei; conditions: 200 μM NADPH, 50 μM TS2, 100 μM DTNB, 30 min, absorbance 412 nm; read-out: IC50, inhibition of endogenous TbTR activity in T. brucei lysate
Procedure: T. brucei parasites were grown on IMDM medium (Iscove’s Modified Dulbecco’s Medium) supplied with 3 gr/L sodium bicarbonate, 136 mg/L hypoxanthine, 39 mg/L thymidine, 28.2 mg/L bathocuprione sulfonic acid, 0.5 mM cysteine, 0.001% β-mercaptoethanol and 10% heat-inactivated Calf serum. 1.5 x 10^6 compound treated parasite per well were lysed using 1 mM EDTA, 40 mM Hepes pH 7.5, 50 mM Tris-HCl pH 7.5, 2% Triton-X100 and protease inhibitors cocktail (Sigma). 200 μM NADPH, 50 μM TS2, 100 μM DTNB were added in each well to trigger the TbTR activity. After 30 min incubation the absorbance signal (412 nm) was detected using the Safire2 plate reader (Tecan, Switzerland).

[6] = biological target: T3, TbTR; experiment: TbTR DTNB absorbance assay; type: biochemical
Procedure: as §1, §2, §3

[7] = biological target: T4, TbTR (Trypanosoma brucei trypanothione reductase) (Trypanosoma brucei brucei, UniProt P39051); experiment: TbTR luminescent (NADPH-Glo) enzyme assay; type: biochemical
T4 construct: the gene coding for the enzyme (aa 1–492) was codon optimized for the expression in E.coli; made in house; host or cells: E. coli BL21(DE3)
Procedure: Compounds from 10 mM stock solutions were transferred to assay plates by acoustic transfer (EDC Biosystems, Milmont, CA). The TbTR luminescent assay was performed in 384-well white plate (Greiner Bio One, Frickenhausen, Germany). The following components were added to the plates to a final volume of 30 μL: 0.1 nM TR, 20 μM NADPH, 10 μM TS2 in 50 mM HEPES (pH 7.4), 40 mM NaCl, 0.01% BSA. After 60 min of incubation at room temperature the residual amount of NADPH was measured by addition of an equal volume of NADPH-Glo as per the manufacturer’s protocol and the luminescent signal was acquired by an EnVision plate reader (PerkinElmer, Waltham, MA). The DTNB assay was performed in a final volume of 50 μl by addition of 2 nM TR, 100 μM NADPH, 4 μM TS2 and 200 μM DTNB in 40 mM HEPES (pH 7.4), 1 mM EDTA, 0.01% BSA and 0.05% Tween-20. After 10 minutes of incubation at room temperature the absorbance signal (412 nm) was detected using the Safire2 plate reader (Tecan, Switzerland). The human glutathione reductase (hGR) activity assay was carried out as described by Turcano et al.[23]. Results were analyzed using Prism software (GraphPad, San Diego, CA) and Vortex (Dotmatics, Bioshops Stortford, UK). Dose-response curves were fitted by four-parameter logistic regression.
The TbTR enzyme enzyme was produced in bacteria, purified as described in materials and methods and used to develop an in vitro enzyme assay (Fig 1A). To measure TbTR activity, a luminescent assay was optimized starting from a design that we previously described. First we determined the linearity range of the NADPH detection signal via NADPH-Glo kit that was determined to be 50 μM (Fig 1B). The Km (apparent) value for TS2 was calculated using 1 nM TR in the presence of serial dilutions of TS2 and a fixed concentration of 40 μM NADPH. The luminescence signal was detected in the first 10 min of reaction. NADPH depletion, calculated using the NADPH standard curve (Fig 1B), allowed the determination of the apparent Km values by the Michaelis-Menten kinetic (Fig 1C). The Km for TS2 was calculated to be 4.0 ± 0.7 μM. To further optimize the assay, a time course experiment was carried out. Different concentrations of the TbTR enzyme, ranging from 0.025 to 0.2 nM, were used, while the TS2 concentration was fixed near the Km value (5 μM) and the NADPH concentration was 20 μM that falls within the linearity range observed for the NADPH standard curve. 0.1 nM TbTR at and 60 min of incubation were judged to be an optimal compromise for preserving the reaction linearity along with a good signal to background ratio (Fig 1D) and allowing a suitable time for the screening operations. The final conditions used for the screening were: 0.1 nM TbTR, 5 μM TS2, 20 μM NADPH with the incubation time of the reaction being 60 minutes.

[8] = physchem; type: physicochemical; conditions: pH 7.4, aqueous buffer
Procedure: The solubility testing was carried out as previously reported.

[9] = biological target: T3, TbTR; experiment: TS2 competition assay (TbTR luminescent assay); type: biochemical; conditions: 5 or 25 μM compound
Procedure: Competition experiments were performed at two different compound concentrations (5 μM and 25 μM) by TbTR luminescent assay. The apparent Km values for TS2 in presence of 20 μM NADPH were calculated using 1 nM TR after 10 min incubation. […] The luminescent signal was measured using the EnVision plate reader (PerkinElmer, USA). IC50, Vmax, and Km values were calculated using Prism software (GraphPad, San Diego, CA).

[10] = TbTR assay IC50, luminescence assay, n=4, dose-response from 85 μM

T3 sequence (P39051 whole entry, the tested form may be a part): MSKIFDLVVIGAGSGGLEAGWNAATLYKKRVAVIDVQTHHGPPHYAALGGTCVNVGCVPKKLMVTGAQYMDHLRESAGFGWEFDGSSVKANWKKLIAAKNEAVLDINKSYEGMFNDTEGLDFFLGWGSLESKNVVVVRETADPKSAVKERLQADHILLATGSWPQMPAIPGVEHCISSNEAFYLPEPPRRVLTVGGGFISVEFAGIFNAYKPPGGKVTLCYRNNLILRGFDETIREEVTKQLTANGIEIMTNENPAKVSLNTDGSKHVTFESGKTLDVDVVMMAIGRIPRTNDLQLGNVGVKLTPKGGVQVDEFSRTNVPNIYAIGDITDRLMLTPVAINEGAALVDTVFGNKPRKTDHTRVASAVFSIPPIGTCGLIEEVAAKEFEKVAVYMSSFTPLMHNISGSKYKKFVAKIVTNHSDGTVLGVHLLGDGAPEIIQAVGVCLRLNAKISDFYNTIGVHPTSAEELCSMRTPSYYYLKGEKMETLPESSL
T4 sequence (P39051 whole entry, the tested form may be a part): as above
T2 sequence (A4HSF7 entry or part of it): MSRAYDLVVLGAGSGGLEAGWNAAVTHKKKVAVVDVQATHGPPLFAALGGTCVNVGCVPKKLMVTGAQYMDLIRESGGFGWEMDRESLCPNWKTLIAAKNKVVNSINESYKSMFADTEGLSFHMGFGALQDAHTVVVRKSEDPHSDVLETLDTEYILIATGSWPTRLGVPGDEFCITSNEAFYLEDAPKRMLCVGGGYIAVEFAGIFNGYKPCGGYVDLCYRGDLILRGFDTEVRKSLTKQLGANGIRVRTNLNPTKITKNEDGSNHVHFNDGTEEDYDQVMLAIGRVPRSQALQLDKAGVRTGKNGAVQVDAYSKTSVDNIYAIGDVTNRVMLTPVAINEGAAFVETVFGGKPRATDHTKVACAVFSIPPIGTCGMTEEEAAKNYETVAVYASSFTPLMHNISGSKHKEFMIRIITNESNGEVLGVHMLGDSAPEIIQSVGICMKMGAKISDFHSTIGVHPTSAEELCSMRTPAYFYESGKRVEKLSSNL

Row | IC50 ([7]; luminescence assay, n=4, dose-response from 85 μM, read-out: TbTR assay IC50) | Structure (SMILES) | IC50 [1] | activity against human glutathione reductase (hGR) [1] | IC50 [2] | Kd [3] | koff [3] | binding to TbTR (reversibility) ([3]; SPR, 0.3125 to 20 μM) | IC50 [4] | IC50 [5] | IC50 [6] | IC50 ([7]; TbTR IC50, luminescence assay) | IC50 [7, 10] | solubility [8] | change in calculated Vmax [9] | mode of inhibition versus TS2 [9]
1 |  | CN(CCCN1CN(c2ccccc2)C2(CCN(CC[C@@H]3CC[C@H]4C[C@@H]3C4(C)C)CC2)C1=O)CC1(O)CCN(C(=N)N)CC1 [Compound 1, 4-(((3-(8-(2-((1S,2S,5S)-6,6-dimethylbicyclo[3.1.1]heptan-2-yl)ethyl)-4-oxo-1-phenyl-1,3,8-triazaspiro[4.5]decan-3-yl)propyl)(methyl)amino)methyl)-4-hydroxypiperidine-1-carboximidamide] | > 50 µM | no activity was detected | 3.8 ± 0.6 µM | 10.3 ± 2.9 µM | 0.035 ± 0.014 s⁻¹ | reversible binding | 2.2 ± 2.4 µM | 5.7 ± 0.6 µM | 0.966 ± 0.068 µM | 3.5 ± 2.2 µM | 3.5 ± 2.19 µM | 185 µM (≈ 113 µg/mL) | No changes | competitive with TS2
2 | > 85 µM | O=C(CCCN1CCC2(CC1)C(=O)NCN2c1ccccc1)c1ccc(F)cc1 [Compound 5, Spiperone, reference compound] |  |  |  |  |  |  |  |  |  |  |  |  |  | 
3 |  | O=C(CCN1CN(c2ccccc2)C2(CCNCC2)C1=O)NC(c1ccccc1)c1ccccc1 [Compound 18] |  |  |  |  |  |  |  |  |  |  | > 85 µM |  |  | 
